In patent US7135470B2, “Thienopyridazines as IKK inhibitors” (Roche Palo Alto LLC, priority 2004, dated 2006):

Molecular target: T1, purified recombinant human IKKb (Homo sapiens, UniProt O14920)
T1 sequence (O14920 1-756): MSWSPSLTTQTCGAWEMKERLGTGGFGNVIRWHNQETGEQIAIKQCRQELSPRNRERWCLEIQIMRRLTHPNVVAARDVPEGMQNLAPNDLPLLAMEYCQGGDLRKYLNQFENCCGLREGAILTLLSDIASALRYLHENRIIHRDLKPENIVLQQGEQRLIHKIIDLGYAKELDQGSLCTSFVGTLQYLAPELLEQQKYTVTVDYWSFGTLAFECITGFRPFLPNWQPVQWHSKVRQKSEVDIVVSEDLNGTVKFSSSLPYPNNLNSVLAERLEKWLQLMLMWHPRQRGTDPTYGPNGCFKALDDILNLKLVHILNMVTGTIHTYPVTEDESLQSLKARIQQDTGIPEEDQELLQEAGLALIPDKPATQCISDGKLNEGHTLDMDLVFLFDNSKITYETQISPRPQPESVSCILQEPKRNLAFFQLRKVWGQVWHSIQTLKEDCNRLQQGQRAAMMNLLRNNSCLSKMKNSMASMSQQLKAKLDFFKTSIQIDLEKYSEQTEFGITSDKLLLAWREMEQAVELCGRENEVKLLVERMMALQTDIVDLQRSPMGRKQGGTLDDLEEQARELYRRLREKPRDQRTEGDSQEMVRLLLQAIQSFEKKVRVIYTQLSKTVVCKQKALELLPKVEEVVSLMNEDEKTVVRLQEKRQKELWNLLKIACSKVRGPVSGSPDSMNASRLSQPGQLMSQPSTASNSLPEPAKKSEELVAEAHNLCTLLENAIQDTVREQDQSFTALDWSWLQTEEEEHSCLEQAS
Assay: IKKb kinase assay, incorporation of radiolabeled 33P gATP into Biotin-peptide substrate derived from IkB-alpha
Assay type: biochemical
Settings: recombinant human IKKb 25 nM, ATP 10 μM, peptide substrate 30 μM, 30 minutes at 30° C.
Method: This example describes an assay that is useful in evaluating and selecting a compound that modulates IKK. The assay measures the incorporation of radiolabeled ^33P gATP into the Biotin-peptide kinase substrate, derived from the IkB-alpha sequence.
In a 40 ul volume, 26 ul of ADB diluted, purified recombinant human IKKb [25 nM] was mixed with 4 ul 10× concentration of test compounds, [usually 100 uM–0.003 uM], [10%] DMSO and incubated for 10 minutes at room temperature. The kinase reaction was initiated by the addition of 10 ul 4× substrate cocktail containing the peptide substrate [0 or 30 μM] ATP [10 μM], and ^33PgATP [2uCi/rxn]. After 30 minutes of incubation at 30° C., the reaction was terminated by the transfer of 25 ul reaction sample to a phosphocellulose membrane/plate containing 150 ul 0.75% phosphoric acid.
On the following day, the free radionucleotides in the phosphocellulose membrane were washed under vacuum with 3×200 ul of 0.75% phosphoric acid. After the last wash membrane/plates were transferred to an adoptor plate and 70 ul of scintillation cocktail was added to each well. After four hours, the amount of radioactivity for each well was counted in a top counter.

IC50: < 1000 nM
Compound: NC(=O)c1nnc(N)c2cc(-c3ccc(F)cc3)sc12 [Compound 3, 4-Amino-2-(4-fluoro-phenyl)-thieno[2,3-d]pyridazine-7-carboxylic acid amide]
